Data published in patent US20030186943A1, “Substituted gamma-phenyl-delta-lactams and uses related thereto” (Inflazyme Pharmaceuticals Ltd., priority 1998, published 2003).
Like-named read-outs stand apart in the source and are kept apart here.

What was measured:
[1] = test system: primary human neutrophils; experiment: Generation of reactive oxygen species by fMLP-activated neutrophils (luminol-enhanced chemiluminescence); type: cell-based; conditions: Neutrophil
Description: Neutrophil activation can be measured by quantitation of ROS generated in vitro. Measurement of ROS allows specific quantitation of a pro-inflammatory species and is also a general measure of neutrophil activation. The most sensitive method for measuring the production of ROS by neutrophils is luminol-enhanced chemiluminescence. […] The assay system used to evaluate the ability of compounds to inhibit ROS generation in neutrophils is indicative of anti-inflammatory activity that may be efficacious in disease states including but not limited to rheumatoid arthritis and inflammatory bowel disease.
Freshly isolated primary human neutrophils (5×10^6 cells/mL) were incubated with the required concentrations of compound or vehicle for 30 minutes at 37° C. in HBSS buffer (pH 7.4) containing Ca^2+. 100 nM wortmannin was used as a positive control. Aliquots of each sample were transferred to a microtitre plate to which luminol (1 μM); obtained from Sigma; Catalogue No. A8511 is added. Activation of the neutrophils was immediately initiated by addition of (1 μM) fMLP; obtained from Sigma, Catalogue No. F3506. Light output from each well was recorded for 30 minutes in a microplate luminometer. Total light output (integral of the time-course) was determined for each well. Inhibitory activities of test drugs against neutrophil ROS generation is expressed as percentage activity relative to a no drug control (100% activation or generation of ROS) containing 0.25% DMSO. Concentration of test compound required to inhibit the generation of ROS to 50% of control values (IC50's) were determined from concentration-response curves by non-linear regression analysis.

[2] = test system: primary human neutrophils; experiment: fMLP-induced human neutrophil chemotaxis; type: cell-based; conditions: fMLP-induced chemotaxis, X marks this range, read-out: IC50 RANGE (μM) 1-10
Description: Chemotaxis buffer containing the chemoattractant fMLP (10 μM) was added to each well of a chemotaxis plate and a filter was inserted ensuring contact between the filter and the chemotaxis buffer in the well. A submaximal concentration of chemoattractant was used which had been determined in previous experiments. […] Freshly isolated neutrophils (1×10^6) were incubated with vehicle (0.125% DMSO)±test compound for 1 hr at 37° C. Treatment and control cell suspensions were then gently resuspended and 20 μL of cells was added to the top side of the filter on each well. The plate was incubated for 1.5 hours at 37° C. under 5% CO2. Cells were then removed from the top side of the filter by aspiration and the entire plate was centrifuged. The filter was removed and known concentrations of cells were added to unused wells to prepare a standard curve. XTT (Sigma; Catalogue No. X 4251)/PMS (Sigma; Catalogue No. P 7626) solution prepared in buffer was added to each well and the cells were further incubated 1-2 hours and measured for absorbance at 450 nm. Absorbance values were converted to cell numbers using the standard curve. IC50 values are averages from at least three separate experiments with triplicate determinations.

[3] = test system: Resiniferitoxin-induced mouse ear edema; experiment: Resiniferitoxin-induced mouse ear edema; type: in vivo; conditions: CD1 mice; for inhibition in vivo at 100 mg/kg: ip, intraperitoneal administration
Description: One of the primary characteristics of inflammation is an increase in vascular dilation and permeability leading to the extravasation of, and collection of fluids in, the interstitium, resulting in redness and swelling. Rheumatoid arthritis in particular is characterized by pronounced edema of affected joints resulting in significant pain and stiffness. The mouse ear inflammation model is a standard in vivo assay for inflammation that is based on an increase in ear weight which is attributable to edema induced by inflammatory mediators. RTX (resiniferitoxin; Sigma; Catalogue No. R 8756)) is a diterpene isolated from the plant Euphorbia poisonii and is an ultrapotent analog of capsaicin. RTX acts by selectively stimulating nociceptive and thermal-sensitive nerve ending in tissue, eliciting neurogenic edema. Compounds of the present invention, whether administered topically, intraperitoneally or orally, inhibited development of edema induced by topical application of RTX.
Mice (CD1, Charles River Laboratories) were separated into groups (n—5−8) and tagged. Control mice had RTX (0.1 μg/ear) applied topically to the inner and outer sides of the left ear and vehicle applied to the right ear as a control. For topical administration, experimental/treatment mice received RTX+test compound solution (50 μg/ear) on the left ear and acetone on the right ear. For intraperitoneal (i.p.) administration, 100 mg/kg test compound dissolved in 100 μL PEG 200:saline (1:1) was injected followed by a 30 minute waiting period then the standard 30 minute RTX edema induction. For oral (p.o.) administration, 10 mg/kg test compound in 100 μL PEG-200 was given to animals, then edema induced using 0.1 μg/ear RTX after a 1.5 hour waiting period. After edema induction, mice were sacrificed, and a standard disc of ear tissue was removed. Each disk of tissue was immediately weighed to the nearest 1/10th of a mg. Data were analyzed by taking the difference of each left ear from the right ear, calculating the mean+/−SEM. Statistical significance was tested by 2-sample t-test on the left/right ear weight differences of the control group vs. the experimental group.

[4] = biological target: T1, cAMP phosphodiesterase 3 from human platelets (Homo sapiens, UniProt Q14432); experiment: Inhibition of cAMP phosphodiesterase 3 from human platelets; type: biochemical; conditions: PDE3, platelet cell extract, X marks this range
T1 construct: from tissue; host or cells: human platelets, cytoplasmic extract
T1 sequence (Q14432 whole entry): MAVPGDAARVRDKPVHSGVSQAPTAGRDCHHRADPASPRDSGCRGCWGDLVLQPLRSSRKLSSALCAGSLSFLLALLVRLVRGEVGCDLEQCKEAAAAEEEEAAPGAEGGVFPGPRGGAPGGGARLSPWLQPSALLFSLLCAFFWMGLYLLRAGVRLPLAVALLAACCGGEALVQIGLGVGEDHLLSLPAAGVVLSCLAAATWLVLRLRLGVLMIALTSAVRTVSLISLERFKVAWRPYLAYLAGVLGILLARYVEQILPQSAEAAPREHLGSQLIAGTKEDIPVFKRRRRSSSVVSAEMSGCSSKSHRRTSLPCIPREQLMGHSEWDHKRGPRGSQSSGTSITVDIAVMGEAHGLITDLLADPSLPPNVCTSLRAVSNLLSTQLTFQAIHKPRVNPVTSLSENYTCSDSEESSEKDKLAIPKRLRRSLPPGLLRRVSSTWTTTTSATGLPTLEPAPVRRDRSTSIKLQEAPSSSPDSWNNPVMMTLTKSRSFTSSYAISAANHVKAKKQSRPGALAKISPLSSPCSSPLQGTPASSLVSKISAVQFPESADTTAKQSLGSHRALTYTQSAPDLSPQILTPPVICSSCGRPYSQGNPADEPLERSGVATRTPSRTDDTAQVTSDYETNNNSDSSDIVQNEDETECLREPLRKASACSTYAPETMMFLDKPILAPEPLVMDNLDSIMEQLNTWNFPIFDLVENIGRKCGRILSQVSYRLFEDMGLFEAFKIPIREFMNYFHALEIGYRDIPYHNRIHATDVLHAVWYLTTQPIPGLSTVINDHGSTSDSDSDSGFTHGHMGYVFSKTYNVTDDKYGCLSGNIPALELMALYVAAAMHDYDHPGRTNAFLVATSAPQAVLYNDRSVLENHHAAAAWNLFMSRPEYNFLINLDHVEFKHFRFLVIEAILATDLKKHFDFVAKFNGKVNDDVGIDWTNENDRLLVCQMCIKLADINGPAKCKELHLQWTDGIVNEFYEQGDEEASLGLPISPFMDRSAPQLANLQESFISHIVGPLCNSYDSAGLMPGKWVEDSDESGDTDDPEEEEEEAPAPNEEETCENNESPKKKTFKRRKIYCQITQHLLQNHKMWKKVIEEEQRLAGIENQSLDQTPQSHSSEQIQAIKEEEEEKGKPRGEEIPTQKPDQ
Description: Compound 12 was screened for activity against 5 of the major classes of mammalian cyclic nucleotide phosphodiesterase (termed PDE 1 through 5). PDE's 1 through 4 utilize cAMP as substrate while PDE 5 uses cGMP. The broad specificity PDE inhibitor 3-isobutyl-1-methylxanthine (IBMX; Sigma; Catalogue No. 17018)) was used as a positive control in all assays. PDE's for the various assays were partially purified from the following cells/tissues; PDE 1 (bovine heart), PDE 2 (human platelets), PDE 3 (human platelets), PDE 4 (human promonocytic U937 cells) and PDE 5 (human platelets).
Platelet cell extracts were prepared as described above for the U937 cells. The PDE3 assay was performed using platelet cell extract as described above for the PDE 4 assay. Platelets contain PDE 2, 3 and 5. However PDE2 and 5 preferentially utilize cGMP, so in an assay with cAMP as a substrate they are not detected.

[5] = test system: High Affinity Rolipram Binding Site of PDE4 in Mouse Brain; experiment: Displacement of [3H]-rolipram from its high affinity binding site (HARBS); conditions: ratio of IC50 for PDE4 catalytic activity to concentration displacing 50% of rolipram from HARBS
Description: Suspension was centrifuged twice at 30,000×G at 4° C. and the supernatant discarded. The pellet was resuspended in buffer, and adjusted to a protein concentration of 0.5 mg/mL. Drugs to be tested were dissolved in DMSO and pipetted in triplicate into a 96 well microplate at concentrations ranging from 1 to 30,000 nM. […] The plate was incubated at 4° C. for 1 hour. Contents of the plate were aspirated through a Whatman GF/C filterplate, and rinsed with 4×200 μL ice-cold buffer. […] Triplicate determinations were performed at each concentration.

[6] = test system: cAMP response element luciferase activity in human U937 monocytic cells; experiment: Potentiation of forskolin-induced CRE-luciferase activity in U937 cells; type: cell-based; conditions: U-937, U937 cells co-incubated with 10 μM forskolin, 4 hours, X marks this range
Description: Compounds of the present invention were thereby shown to provide potentiated luciferase expression in U937 cells treated with the adenylyl cyclase activator forskolin.
Human pro-monocytic U937 cells were maintained in RPMI medium containing 10% FCS and 2 mM […]. U937 cells were transiently transfected as described in Biotechniques Vol. 17(6):1058, 1994. Briefly, cells were grown in medium containing serum to a density of 5×10^6 cells/mL and then resuspended in media containing serum at a density of approximately 1×10^7 cells/mL. 400 μL of cells were transferred into the electroporation cuvette containing 10 μg of the reporter vector (PCRE-luc) in a volume of 40 μL H2O. Reporter vector DNA was prepared from DH5α E. coli using the DNA […] free kit (Qiagen) as per manufacturers instructions. U937 cells were clectroporated at room temperature using a BIORAD electroporator. Capacitance was set to 1050 μF and voltage was 280V. The time constant was noted after each electroporation. Cells were then diluted in 4 mL of media and serum and 200 μL of cells were plated per well. Cells were allowed to recover for 16-18 hours. Cells were then treated with a test compound or vehicle in the presence or absence of 10 μM forskolin for 4 hours at 37° C.
The luciferase assay was performed as per manufacturers instructions (Tropix). Briefly, cells were centrifuged for 4 minutes at 1200 rpm and media supernatant was removed. Cell pellets were lysed in 15 μL Lysis buffer (Tropix). Luciferase assay was performed using 10 μL of cell lysate with 10 μL of buffer A and 25 μL buffer B. Luciferase activity was obtained using a luminometer with a 5-second delay followed by a read time of 10 seconds.

[7] = ROS production, X marks this range, read-out: IC50 RANGE (μM) 1-10
[8] = Mus musculus, topical administration, 50 μg/ear, RTX 0.1 μg/ear
[9] = read-out: IC50 RANGE (μM) <1, ROS production, X marks this range
[10] = read-out: EC50 range (μM) 0.1-1
[11] = read-out: IC50 range (μM) 10-100

| Compound | IC50 [4] [µM] | PDE4:HARBS [5] | EC50 ([6]; read-out: EC50 range (μM) 1-25) [µM] | IC50 [1, 9] [µM] | further results |
| --- | --- | --- | --- | --- | --- |
| COc1ccc([C@@H]2CCC(=O)OC2)cc1OC [Compound 21] | > 100 | <1 | 1 to 25 |  | IC50 [1, 7]: 1 to 10 µM; IC50 [2]: 1 to 10 µM; inhibition in vivo at 50 µg/ear [3, 8]: 32% |
| COc1cc(CC2C[C@@H](c3ccc(OC)c(OC4CCCC4)c3)COC2=O)ccc1OCc1ccccc1 (stereo partly drawn) [Compound 42] | > 100 | <1 | 1 to 25 |  | IC50 ([1]; ROS production, X marks this range, read-out: IC50 RANGE (μM) 10-100): 10 to 100 µM; inhibition in vivo at 100 mg/kg ([3]; Mus musculus): 38%; inhibition in vivo at 10 mg/kg ([3]; Mus musculus, oral administration, 10 mg/kg): 41% |
| BrCc1ccc(OCc2ccccc2)c(OCc2ccccc2)c1 [Compound 78, 3,4-dibenzyloxy benzyl bromide] |  |  |  |  | inhibition in vivo at 50 µg/ear [3, 8]: 93% |
| COc1ccc([C@@H](CO)CCC(=O)OC(C)(C)C)cc1OCc1ccccc1 [Compound 91] |  |  |  |  | % Inhibition of Edema ([3]; topical administration, 50 μg/ear, RTX 0.1 μg/ear): 27% |
| COc1ccc([C@@H]2CCC(=O)OC2)cc1OCc1ccccc1 [Compound 92] |  |  |  |  | inhibition in vivo at 50 µg/ear [3, 8]: 93% |
| CCCCOc1cc([C@@H]2CCC(=O)OC2)ccc1OC [Compound 99] | > 100 | >1 |  | < 1 | inhibition in vivo at 100 mg/kg ([3]; Mus musculus): 88%; inhibition in vivo at 50 µg/ear [3, 8]: 98%; EC50 [6, 10]: 0.1 to 1 µM |
| COc1ccc([C@@H]2CCC(=O)OC2)cc1OC(C)=O [Compound 103] |  |  |  |  | inhibition in vivo at 50 µg/ear [3, 8]: 94% |
| COc1ccc([C@@H]2CCC(=O)OC2)cc1OC(C)C [Compound 155] | > 100 | <1 | 1 to 25 |  | IC50 [1, 7]: 1 to 10 µM; EC50 [6, 10]: 0.1 to 1 µM |
| C=C(C)COc1cc([C@@H]2CCC(=O)OC2)ccc1OC [Compound 156] | > 100 | 1 |  | < 1 | EC50 [6, 10]: 0.1 to 1 µM |
| COc1ccc([C@@H]2CCC(=O)OC2)cc1OCC1CCC1 [Compound 157] | > 100 | >1 |  | < 1 | EC50 [6, 10]: 0.1 to 1 µM |

Continued, in another order:

| IC50 [4] [µM] | PDE4:HARBS [5] | EC50 ([6]; read-out: EC50 range (μM) 1-25) [µM] | IC50 [1, 9] [µM] | Compound | further results |
| --- | --- | --- | --- | --- | --- |
|  | <1 | 1 to 25 | < 1 | COc1cc(CC2CC(c3ccc(OC)c(OC)c3)COC2=O)ccc1O (stereo not drawn) [Compound 129] | IC50 [2]: 1 to 10 µM; IC50 [4, 11]: 10 to 100 µM |
|  | <1 | 1 to 25 | < 1 | COc1cc(C[C@@H]2C[C@H](c3ccc(OC)c(OC)c3)COC2=O)ccc1O [Compound 130] | IC50 [2]: 1 to 10 µM; IC50 [4, 11]: 10 to 100 µM |
|  | <1 | 1 to 25 | < 1 | COc1ccc([C@H]2COC(=O)C(Cc3ccc(OC)c(OCc4ccccc4)c3)C2)cc1OC (stereo partly drawn) [Compound 135] | IC50 [4, 11]: 10 to 100 µM |
| > 100 | <1 | 1 to 25 | < 1 | COc1ccc([C@H]2COC(=O)C(Cc3ccccc3)C2)cc1OC1CCCC1 (stereo partly drawn) [Compound 168] |  |
| > 100 | <1 |  |  | COc1ccc([C@H]2COC(=O)C(Cc3ccccc3[N+](=O)[O-])C2)cc1OC1CCCC1 (stereo partly drawn) [Compound 174] | IC50 ([1]; read-out: IC50 RANGE (μM) >100, ROS production, X marks this range): > 100 µM; EC50 ([6]; read-out: EC50 range (μM) >25): > 25 µM |
| > 100 | <1 | 1 to 25 |  | COc1ccc([C@H]2COC(=O)C(Cc3cccc([N+](=O)[O-])c3)C2)cc1OC1CCCC1 (stereo partly drawn) [Compound 175] | IC50 [1, 7]: 1 to 10 µM |
| > 100 | <1 |  |  | COc1ccc(CC2(Cc3ccc(OC)c(O)c3)C[C@@H](c3ccc(OC)c(OC4CCCC4)c3)COC2=O)cc1O [Compound 181] | IC50 [1, 7]: 1 to 10 µM; EC50 ([6]; read-out: EC50 range (μM) >25): > 25 µM |
| > 100 | >1 | 1 to 25 | < 1 | COc1ccc([C@H]2COC(=O)C(Cc3cccc(N)c3)C2)cc1OC1CCCC1 (stereo partly drawn) [Compound 184] |  |
